Reference: PMC12281475, “Mediator Kinase Inhibitor Selectivity and Activity in Colorectal Cancer” (ACS Chemical Biology, 2025)

How the values were obtained:
CDK1_CycA2 = biological target: T1, CDK1_CycA2 (Homo sapiens, UniProt P06493); assay: Radiometric protein kinase assay (33PanQinase), CDK1_CycA2; type: biochemical
T1 construct: purchased Reaction Biology

CDK1_CycB1 = biological target: T2, CDK1_CycB1 (Homo sapiens, UniProt P06493); assay: Radiometric protein kinase assay (33PanQinase), CDK1_CycB1; type: biochemical
T2 construct: purchased Reaction Biology

CDK1_CycE1 = biological target: T3, CDK1_CycE1 (Homo sapiens, UniProt P06493); assay: Radiometric protein kinase assay (33PanQinase), CDK1_CycE1; type: biochemical
T3 construct: purchased Reaction Biology

CDK10_CycQ = CDK10_CycQ (Homo sapiens, UniProt Q15131); assay: Radiometric protein kinase assay (33PanQinase), CDK10_CycQ; type: biochemical
CDK11B 357-795_CycK = CDK11B 357-795_CycK (Homo sapiens, UniProt P21127); assay: Radiometric protein kinase assay (33PanQinase), CDK11B 357-795_CycK; type: biochemical
CDK12_CycK = biological target: T4, CDK12_CycK (Homo sapiens, UniProt Q9NYV4); assay: Radiometric protein kinase assay (33PanQinase), CDK12_CycK; type: biochemical
T4 construct: purchased Reaction Biology

CDK13_CycK = biological target: T5, CDK13_CycK (Homo sapiens, UniProt Q14004); assay: Radiometric protein kinase assay (33PanQinase), CDK13_CycK; type: biochemical
T5 construct: purchased Reaction Biology

CDK14_CycY = CDK14_CycY (Homo sapiens, UniProt O94921); assay: Radiometric protein kinase assay (33PanQinase), CDK14_CycY; type: biochemical
CDK15_CycA2 = biological target: T6, CDK15_CycA2 (Homo sapiens, UniProt Q96Q40); assay: Radiometric protein kinase assay (33PanQinase), CDK15_CycA2; type: biochemical
T6 construct: purchased Reaction Biology

CDK16_CycY = biological target: T7, CDK16_CycY (Homo sapiens, UniProt Q00536); assay: Radiometric protein kinase assay (33PanQinase), CDK16_CycY; type: biochemical
T7 construct: purchased Reaction Biology

CDK17_p35NCK = CDK17_p35NCK (Homo sapiens, UniProt Q00537); assay: Radiometric protein kinase assay (33PanQinase), CDK17_p35NCK; type: biochemical
CDK18_CycY = CDK18_CycY (Homo sapiens, UniProt Q07002); assay: Radiometric protein kinase assay (33PanQinase), CDK18_CycY; type: biochemical
CDK19_CycC = biological target: T8, CDK19_CycC (Homo sapiens, UniProt Q9BWU1); assay: Radiometric protein kinase assay (33PanQinase), CDK19_CycC; type: biochemical
T8 construct: purchased Reaction Biology

CDK2_CycA2 = biological target: T9, CDK2_CycA2 (Homo sapiens, UniProt P24941); assay: Radiometric protein kinase assay (33PanQinase), CDK2_CycA2; type: biochemical
T9 construct: purchased Reaction Biology

CDK2_CycD1 = biological target: T10, CDK2_CycD1 (Homo sapiens, UniProt P24941); assay: Radiometric protein kinase assay (33PanQinase), CDK2_CycD1; type: biochemical
T10 construct: purchased Reaction Biology

CDK2_CycE1 = biological target: T11, CDK2_CycE1 (Homo sapiens, UniProt P24941); assay: Radiometric protein kinase assay (33PanQinase), CDK2_CycE1; type: biochemical
T11 construct: purchased Reaction Biology

CDK20_CycH = CDK20_CycH (Homo sapiens, UniProt Q8IZL9); assay: Radiometric protein kinase assay (33PanQinase), CDK20_CycH; type: biochemical
CDK20_CycT1 = CDK20_CycT1 (Homo sapiens, UniProt Q8IZL9); assay: Radiometric protein kinase assay (33PanQinase), CDK20_CycT1; type: biochemical
CDK3_CycC = biological target: T12, CDK3_CycC (Homo sapiens, UniProt Q00526); assay: Radiometric protein kinase assay (33PanQinase), CDK3_CycC; type: biochemical
T12 construct: purchased Reaction Biology

CDK3_CycE1 = biological target: T13, CDK3_CycE1 (Homo sapiens, UniProt Q00526); assay: Radiometric protein kinase assay (33PanQinase), CDK3_CycE1; type: biochemical
T13 construct: purchased Reaction Biology

CDK4_CycD1 = biological target: T14, CDK4_CycD1 (Homo sapiens, UniProt P11802); assay: Radiometric protein kinase assay (33PanQinase), CDK4_CycD1; type: biochemical
T14 construct: purchased Reaction Biology

CDK4_CycD2 = biological target: T15, CDK4_CycD2 (Homo sapiens, UniProt P11802); assay: Radiometric protein kinase assay (33PanQinase), CDK4_CycD2; type: biochemical
T15 construct: purchased Reaction Biology

CDK4_CycD3 = biological target: T16, CDK4_CycD3 (Homo sapiens, UniProt P11802); assay: Radiometric protein kinase assay (33PanQinase), CDK4_CycD3; type: biochemical
T16 construct: purchased Reaction Biology

CDK5_p25NCK = biological target: T17, CDK5_p25NCK (Homo sapiens, UniProt Q00535); assay: Radiometric protein kinase assay (33PanQinase), CDK5_p25NCK; type: biochemical
T17 construct: purchased Reaction Biology

CDK5_p35NCK = biological target: T18, CDK5_p35NCK (Homo sapiens, UniProt Q00535); assay: Radiometric protein kinase assay (33PanQinase), CDK5_p35NCK; type: biochemical
T18 construct: purchased Reaction Biology

CDK6_CycD1 = biological target: T19, CDK6_CycD1 (Homo sapiens, UniProt Q00534); assay: Radiometric protein kinase assay (33PanQinase), CDK6_CycD1; type: biochemical
T19 construct: purchased Reaction Biology

CDK6_CycD2 = biological target: T20, CDK6_CycD2 (Homo sapiens, UniProt Q00534); assay: Radiometric protein kinase assay (33PanQinase), CDK6_CycD2; type: biochemical
T20 construct: purchased Reaction Biology

CDK6_CycD3 = biological target: T21, CDK6_CycD3 (Homo sapiens, UniProt Q00534); assay: Radiometric protein kinase assay (33PanQinase), CDK6_CycD3; type: biochemical; conditions: slope of the IC50 fit
T21 construct: purchased Reaction Biology

CDK7_CycH_MAT1 = biological target: T22, CDK7_CycH_MAT1 (Homo sapiens, UniProt P50613); assay: Radiometric protein kinase assay (33PanQinase), CDK7_CycH_MAT1; type: biochemical
T22 construct: purchased Reaction Biology

CDK8_CycC = biological target: T23, CDK8_CycC (Homo sapiens, UniProt P49336); assay: Radiometric protein kinase assay (33PanQinase), CDK8_CycC; type: biochemical
T23 construct: purchased Reaction Biology

CDK9_CycK = biological target: T24, CDK9_CycK (Homo sapiens, UniProt P50750); assay: Radiometric protein kinase assay (33PanQinase), CDK9_CycK; type: biochemical
T24 construct: purchased Reaction Biology

CDK9_CycT1 = biological target: T25, CDK9_CycT1 (Homo sapiens, UniProt P50750); assay: Radiometric protein kinase assay (33PanQinase), CDK9_CycT1; type: biochemical
T25 construct: purchased Reaction Biology

COLO205 cells = assay: Promoter reporter panel (transient luciferase constructs), COLO205; type: cell-based, human; conditions: COLO205, 350 nM, 6 h
Experimental: Transcription factor activity was assayed in cell lines using 45 different plasmid reporter constructs encoding firefly luciferase under the control of a basal promoter element downstream of specific transcriptional response elements (Qiagen, Germany; Supporting Table S1). Firefly luciferase under the control of basal promoter element alone was used to establish the baseline signal and cotransfection of a construct expressing renilla luciferase from a CMV-promoter was used as a transfection control. Cells were reverse-transfected with reporter plasmids, compounds were added 42 h post transfection and reporter activity quantified following 6 h continuous exposure.
Transcription factor promoter reporter assays were carried out to define signalling pathways and biological processes modulated by CDK8/19 ligands. A panel of plasmid reporter constructs encoding firefly luciferase under the control of a basal promoter element with specific transcriptional response elements were used (Qiagen, Germany;
Firefly luciferase under the control of the minimal promoter element (TATA box) alone was used to establish the base-line signal and a construct expressing renilla luciferase from a CMV-promoter was used as a transfection control. COLO205 human colon cancer cells or SW620 parental and CRISPR KO cells were reverse-transfected with the panel of plasmid reporters in a 96 well plate format. The reporter mixes were prepared at 40:1 ratio of fLUC to rLUC plasmid at a final concentration of
100 ng/ml. For each well 1 ul plasmid was complexed with 1 ul Lipofectamine 2000
(Thermo Fisher Scientific, UK) in 50 ul OptiMEM (Thermo Fisher Scientific, UK) media
for 20 mins at room temperature. Cells were trypsinised and 50 ul of cells at 2e5
cells/ml in supplemented DMEM were added to the 50 ul of plasmid:lipofectamine
mixture in OptiMEM in a well of a 96-well white opaque flat bottom microtiter plate.
fLUC and rLUC were measured by the addition of 100 ul dual glo luciferase reagent
(Promega, USA). Reporter activity was quantified in untreated cells 48 hours post- […]

CDK8 = system: CDK8; parameters: method as in numbers not given; conditions: reporter displacement assay; previously characterized compounds, no method in this paper; ref numbers not given; read-out: IC50 for in vitro CDK8 binding; cited from earlier work
[1] = highest assay concentration 1.00E-05 M

T5 sequence (Q14004 whole entry): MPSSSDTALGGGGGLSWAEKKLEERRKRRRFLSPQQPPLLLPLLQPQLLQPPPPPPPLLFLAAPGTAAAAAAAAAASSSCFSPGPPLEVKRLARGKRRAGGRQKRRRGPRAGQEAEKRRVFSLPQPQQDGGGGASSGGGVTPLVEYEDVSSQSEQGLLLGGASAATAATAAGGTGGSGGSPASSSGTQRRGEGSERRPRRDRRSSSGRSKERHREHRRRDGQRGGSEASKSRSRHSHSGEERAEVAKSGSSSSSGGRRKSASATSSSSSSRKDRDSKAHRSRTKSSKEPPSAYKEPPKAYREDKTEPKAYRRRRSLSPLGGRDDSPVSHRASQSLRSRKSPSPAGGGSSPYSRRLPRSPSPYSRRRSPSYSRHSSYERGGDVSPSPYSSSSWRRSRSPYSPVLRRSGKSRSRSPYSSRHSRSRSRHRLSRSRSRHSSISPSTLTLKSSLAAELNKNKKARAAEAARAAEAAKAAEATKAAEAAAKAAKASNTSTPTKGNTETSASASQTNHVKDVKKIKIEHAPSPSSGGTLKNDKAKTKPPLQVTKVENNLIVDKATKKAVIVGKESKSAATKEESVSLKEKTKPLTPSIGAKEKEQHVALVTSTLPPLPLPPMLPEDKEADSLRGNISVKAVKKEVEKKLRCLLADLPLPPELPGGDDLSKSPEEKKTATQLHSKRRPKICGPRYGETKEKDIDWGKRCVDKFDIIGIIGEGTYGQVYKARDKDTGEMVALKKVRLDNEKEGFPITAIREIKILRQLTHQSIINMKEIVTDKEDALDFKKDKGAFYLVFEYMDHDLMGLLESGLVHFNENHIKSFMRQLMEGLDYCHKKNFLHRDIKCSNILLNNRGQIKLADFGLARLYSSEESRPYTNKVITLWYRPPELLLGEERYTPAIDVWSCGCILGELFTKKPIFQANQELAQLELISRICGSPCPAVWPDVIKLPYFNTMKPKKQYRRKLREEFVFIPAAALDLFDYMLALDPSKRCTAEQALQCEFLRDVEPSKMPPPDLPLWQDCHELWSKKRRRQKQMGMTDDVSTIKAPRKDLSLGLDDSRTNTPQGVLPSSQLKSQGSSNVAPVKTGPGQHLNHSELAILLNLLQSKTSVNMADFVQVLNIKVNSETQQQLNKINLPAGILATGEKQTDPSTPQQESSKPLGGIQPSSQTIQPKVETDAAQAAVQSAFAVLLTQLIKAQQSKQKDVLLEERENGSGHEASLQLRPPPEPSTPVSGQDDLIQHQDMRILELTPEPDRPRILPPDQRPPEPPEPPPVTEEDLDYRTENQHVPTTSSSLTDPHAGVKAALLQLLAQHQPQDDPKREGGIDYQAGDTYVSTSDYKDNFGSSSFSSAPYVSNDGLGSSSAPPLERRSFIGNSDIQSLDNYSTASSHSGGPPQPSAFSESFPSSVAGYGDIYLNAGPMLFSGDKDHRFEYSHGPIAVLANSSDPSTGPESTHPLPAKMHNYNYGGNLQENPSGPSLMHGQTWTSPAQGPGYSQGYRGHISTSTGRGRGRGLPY
T5 sequence (O75909 whole entry partner): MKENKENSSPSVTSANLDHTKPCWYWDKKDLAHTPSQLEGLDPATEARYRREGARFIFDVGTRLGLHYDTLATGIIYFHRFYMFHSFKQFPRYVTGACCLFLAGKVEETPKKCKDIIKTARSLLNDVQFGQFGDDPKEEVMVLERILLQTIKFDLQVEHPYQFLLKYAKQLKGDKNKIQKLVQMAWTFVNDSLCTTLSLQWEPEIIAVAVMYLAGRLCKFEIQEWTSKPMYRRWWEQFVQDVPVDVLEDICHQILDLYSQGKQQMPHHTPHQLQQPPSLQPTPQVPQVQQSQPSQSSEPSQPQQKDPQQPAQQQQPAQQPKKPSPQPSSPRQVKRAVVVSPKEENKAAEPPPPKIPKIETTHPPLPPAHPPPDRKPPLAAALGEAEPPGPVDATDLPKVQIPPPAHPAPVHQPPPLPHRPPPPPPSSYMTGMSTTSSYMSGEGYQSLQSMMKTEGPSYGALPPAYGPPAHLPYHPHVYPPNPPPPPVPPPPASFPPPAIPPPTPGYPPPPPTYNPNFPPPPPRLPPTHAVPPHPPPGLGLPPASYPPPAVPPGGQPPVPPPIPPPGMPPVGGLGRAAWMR
Sequence of CDK11B 357-795_CycK (P21127 357-795): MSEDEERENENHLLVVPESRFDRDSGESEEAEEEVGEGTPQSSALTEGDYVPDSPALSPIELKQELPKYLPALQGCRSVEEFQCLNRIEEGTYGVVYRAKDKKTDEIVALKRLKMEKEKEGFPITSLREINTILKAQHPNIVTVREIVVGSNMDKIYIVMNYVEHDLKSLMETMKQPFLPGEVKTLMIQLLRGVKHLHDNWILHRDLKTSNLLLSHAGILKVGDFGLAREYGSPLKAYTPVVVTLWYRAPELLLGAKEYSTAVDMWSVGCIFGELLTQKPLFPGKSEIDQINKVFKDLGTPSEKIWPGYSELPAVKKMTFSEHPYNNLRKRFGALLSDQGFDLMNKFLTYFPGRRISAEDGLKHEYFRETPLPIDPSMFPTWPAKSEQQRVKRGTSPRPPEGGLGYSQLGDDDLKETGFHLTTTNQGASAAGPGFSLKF
Sequence of CDK20_CycT1 (Q8IZL9 whole entry): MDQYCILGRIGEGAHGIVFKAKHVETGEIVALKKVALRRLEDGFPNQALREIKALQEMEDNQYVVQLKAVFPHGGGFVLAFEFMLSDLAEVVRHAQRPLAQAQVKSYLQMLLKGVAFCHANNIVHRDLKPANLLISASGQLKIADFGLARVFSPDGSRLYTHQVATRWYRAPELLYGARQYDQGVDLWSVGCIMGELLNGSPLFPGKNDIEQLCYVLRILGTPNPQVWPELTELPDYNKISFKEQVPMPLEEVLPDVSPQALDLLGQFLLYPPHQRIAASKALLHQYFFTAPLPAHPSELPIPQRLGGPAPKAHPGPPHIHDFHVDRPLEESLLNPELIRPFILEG
Sequence of CDK20_CycH (Q8IZL9 whole entry): as above
Sequence of CDK18_CycY (Q07002 whole entry): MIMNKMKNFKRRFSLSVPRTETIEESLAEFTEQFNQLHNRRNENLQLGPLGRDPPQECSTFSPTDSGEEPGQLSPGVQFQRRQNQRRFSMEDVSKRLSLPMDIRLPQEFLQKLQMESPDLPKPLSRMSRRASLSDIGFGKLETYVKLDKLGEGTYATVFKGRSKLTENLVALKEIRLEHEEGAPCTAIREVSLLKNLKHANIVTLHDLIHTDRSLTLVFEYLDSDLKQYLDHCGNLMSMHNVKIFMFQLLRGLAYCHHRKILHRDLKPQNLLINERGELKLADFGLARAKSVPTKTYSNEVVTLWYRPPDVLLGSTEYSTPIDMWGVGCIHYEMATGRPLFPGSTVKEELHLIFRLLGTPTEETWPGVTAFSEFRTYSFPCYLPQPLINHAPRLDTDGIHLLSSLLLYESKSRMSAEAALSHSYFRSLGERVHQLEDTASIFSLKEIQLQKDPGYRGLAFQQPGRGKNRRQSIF
Sequence of CDK18_CycY (Q8ND76 whole entry partner): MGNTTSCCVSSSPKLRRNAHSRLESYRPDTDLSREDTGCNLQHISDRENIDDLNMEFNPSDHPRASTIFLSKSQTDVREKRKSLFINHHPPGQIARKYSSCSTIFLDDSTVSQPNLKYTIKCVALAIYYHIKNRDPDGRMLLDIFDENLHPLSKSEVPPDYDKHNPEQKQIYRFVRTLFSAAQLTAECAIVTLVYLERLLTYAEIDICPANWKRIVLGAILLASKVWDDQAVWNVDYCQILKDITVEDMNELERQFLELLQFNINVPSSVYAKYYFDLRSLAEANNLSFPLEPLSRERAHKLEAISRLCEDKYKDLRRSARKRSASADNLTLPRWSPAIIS
T24 sequence (P50750 whole entry): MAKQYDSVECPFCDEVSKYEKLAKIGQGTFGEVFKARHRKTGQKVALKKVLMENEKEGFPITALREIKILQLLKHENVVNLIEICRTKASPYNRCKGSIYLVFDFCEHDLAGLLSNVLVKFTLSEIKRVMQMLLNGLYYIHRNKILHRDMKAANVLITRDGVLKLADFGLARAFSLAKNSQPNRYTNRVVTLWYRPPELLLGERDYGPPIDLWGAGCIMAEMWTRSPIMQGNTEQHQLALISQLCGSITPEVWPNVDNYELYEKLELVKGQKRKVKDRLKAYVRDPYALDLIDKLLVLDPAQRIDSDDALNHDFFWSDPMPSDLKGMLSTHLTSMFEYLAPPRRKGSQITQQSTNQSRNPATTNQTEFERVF
T24 sequence (O75909 whole entry partner): as the sequence (O75909 whole entry partner) above
T25 sequence (P50750 whole entry): as the sequence (P50750 whole entry) above
T25 sequence (O60563 whole entry partner): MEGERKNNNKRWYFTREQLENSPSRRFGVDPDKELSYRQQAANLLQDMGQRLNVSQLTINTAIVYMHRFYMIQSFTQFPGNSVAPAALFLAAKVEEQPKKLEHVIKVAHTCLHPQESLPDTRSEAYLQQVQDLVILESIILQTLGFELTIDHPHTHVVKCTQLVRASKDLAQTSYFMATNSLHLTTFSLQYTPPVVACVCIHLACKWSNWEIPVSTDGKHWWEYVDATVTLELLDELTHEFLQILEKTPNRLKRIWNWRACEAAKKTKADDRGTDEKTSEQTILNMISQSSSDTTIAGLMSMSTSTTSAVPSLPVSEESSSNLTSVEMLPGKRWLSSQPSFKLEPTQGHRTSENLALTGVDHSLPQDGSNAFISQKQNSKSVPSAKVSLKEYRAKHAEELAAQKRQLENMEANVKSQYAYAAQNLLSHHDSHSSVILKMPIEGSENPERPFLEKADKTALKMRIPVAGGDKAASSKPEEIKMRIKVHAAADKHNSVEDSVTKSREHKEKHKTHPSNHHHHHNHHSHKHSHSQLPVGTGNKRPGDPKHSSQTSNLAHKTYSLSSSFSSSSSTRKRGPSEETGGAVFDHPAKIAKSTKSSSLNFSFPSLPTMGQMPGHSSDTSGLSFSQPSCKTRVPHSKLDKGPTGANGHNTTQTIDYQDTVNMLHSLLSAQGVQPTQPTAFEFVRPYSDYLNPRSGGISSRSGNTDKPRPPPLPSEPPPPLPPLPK

Cc1n[nH]c2ncc(C(=O)N3CCC[C@H]3c3ccc(Cl)cc3)cc12 [MSC2530818]
IC50 (CDK1_CycA2): 6.46 µM | Hill Slope (CDK1_CycA2; slope of the IC50 fit): -0.93 | IC50 (CDK1_CycB1; [1]): > 10 µM | Hill Slope (CDK1_CycB1; slope of the IC50 fit): -0.72 | IC50 (CDK1_CycE1): 4.15 µM | Hill Slope (CDK1_CycE1; slope of the IC50 fit): -0.97 | IC50 (CDK10_CycQ; [1]): > 10 µM | Hill Slope (CDK10_CycQ; slope of the IC50 fit): -1.12 | IC50 (CDK11B 357-795_CycK; [1]): > 10 µM | Hill Slope (CDK11B 357-795_CycK; slope of the IC50 fit): -0.64 | IC50 (CDK12_CycK; [1]): 9.75 µM | Hill Slope (CDK12_CycK; slope of the IC50 fit): -0.59 | IC50 (CDK13_CycK): > 10 µM | Hill Slope (CDK13_CycK; slope of the IC50 fit): -0.19 | IC50 (CDK14_CycY; [1]): > 10 µM | Hill Slope (CDK14_CycY; slope of the IC50 fit): -1 | IC50 (CDK15_CycA2; [1]): > 10 µM | Hill Slope (CDK15_CycA2; slope of the IC50 fit): -0.85 | IC50 (CDK16_CycY; [1]): > 10 µM | Hill Slope (CDK16_CycY; slope of the IC50 fit): -0.58 | IC50 (CDK17_p35NCK; [1]): > 10 µM | Hill Slope (CDK17_p35NCK; slope of the IC50 fit): -0.57 | IC50 (CDK18_CycY; [1]): 3.72 µM | Hill Slope (CDK18_CycY; slope of the IC50 fit): -1.14 | IC50 (CDK19_CycC): 0.355 µM | Hill Slope (CDK19_CycC; slope of the IC50 fit): -0.43 | IC50 (CDK2_CycA2): 6.53 µM | IC50 (CDK2_CycD1): 9.73 µM | Hill Slope (CDK2_CycD1; slope of the IC50 fit): -1.08 | IC50 (CDK2_CycE1): 2.92 µM | Hill Slope (CDK2_CycE1; slope of the IC50 fit): -1.29 | IC50 (CDK20_CycH; [1]): > 10 µM | Hill Slope (CDK20_CycH; slope of the IC50 fit): -0.81 | IC50 (CDK20_CycT1; [1]): > 10 µM | Hill Slope (CDK20_CycT1; slope of the IC50 fit): -0.44 | IC50 (CDK3_CycC): 6.41 µM | Hill Slope (CDK3_CycC; slope of the IC50 fit): -0.76 | IC50 (CDK3_CycE1): > 10 µM | Hill Slope (CDK3_CycE1; slope of the IC50 fit): -0.54 | IC50 (CDK4_CycD1; [1]): > 10 µM | Hill Slope (CDK4_CycD1; slope of the IC50 fit): -0.48 | IC50 (CDK4_CycD2; [1]): > 10 µM | Hill Slope (CDK4_CycD2; slope of the IC50 fit): -0.44 | IC50 (CDK4_CycD3; [1]): > 10 µM | Hill Slope (CDK4_CycD3; slope of the IC50 fit): -0.71 | IC50 (CDK5_p25NCK; [1]): > 10 µM | Hill Slope (CDK5_p25NCK; slope of the IC50 fit): -0.57 | IC50 (CDK5_p35NCK; [1]): 7.57 µM | Hill Slope (CDK5_p35NCK; slope of the IC50 fit): -1.04 | IC50 (CDK6_CycD1; [1]): > 10 µM | Hill Slope (CDK6_CycD1; slope of the IC50 fit): -0.22 | IC50 (CDK6_CycD2; [1]): > 10 µM | Hill Slope (CDK6_CycD2; slope of the IC50 fit): -1.11 | Hill Slope (CDK6_CycD3): -0.25 | IC50 (CDK7_CycH_MAT1; [1]): > 10 µM | Hill Slope (CDK7_CycH_MAT1; slope of the IC50 fit): -0.6 | IC50 (CDK8_CycC): 0.114 µM | Hill Slope (CDK8_CycC; slope of the IC50 fit): -0.45 | IC50 (CDK9_CycK; [1]): > 10 µM | Hill Slope (CDK9_CycK; slope of the IC50 fit): -0.78 | IC50 (CDK9_CycT1; [1]): > 10 µM | Hill Slope (CDK9_CycT1; slope of the IC50 fit): -1.26 | reduction of activity of TCF/LEF, SP1 and PAX6 reporter constructs (COLO205 cells): > 1.5 fold | IC50 (CDK8): 0.0044 µM

Cc1n[nH]c2ncc(C(=O)N3CCC[C@@H]3c3ccc(Cl)cc3)cc12 [MSC2530819]
IC50 (CDK8): 0.59 µM
